Where “and” joins values, the source holds several entries; their conditions need not be identical. Equal values may be shown once.

Format in all cases: cell-based
Assay [1] deals with murine fibroblasts (L929) and human endocervical adenocarcinoma cells (KB-3-1). Nature of the assay: MTT cytotoxicity, range stated over both cell lines. The settings on record: range over Rut A and Rut B and over L929 and KB-3-1. Here is the method: (§1) Cytotoxic effects were evaluated on human endocervical adenocarcinoma KB-3-1 [ACC 158] cells and mouse fibroblasts L929 [ACC 2] upon treatment with Rub C, W, and Rut A and B within the concentration range of 37 μg/mL–0.63 ng/mL. The half-maximum inhibitory concentrations (IC50) were determined by standard MTT assays as reported previously (see the Supplementary Material for detailed information). The IC50 values of Rub A and Z have currently been reported. […]
KB-3-1 (ACC 158) cervix carcinoma as well as L929 (ACC 2) mouse fibroblasts were cultured under standard cell culture conditions (37 °C, 5% CO2, 95% humidified atmosphere). […] The cultures were routinely monitored for potential contamination, and only mycoplasma free cultures were used. […]
(§2) Absorbances at 570 nm and 630 nm were measured with a plate reader (Tecan, Männedorf, canton of Zürich, Switzerland). Background absorbance (630 nm) was subtracted from the formazan signal (570 nm). The resulting absorbance is directly proportional to the amount of viable cells. The control was normalized to 100% viable cells, and the viability of cells treated with the test compounds was calculated accordingly. IC50 values were calculated based on a sigmoidal fit model using GraphPad Prism. Means and SD were calculated from at least four independent experiments. […]

The subject of assay [2] is Staphylococcus aureus (DSM 1104) biofilm. Nature of the assay: Crystal violet biofilm inhibition assay, S. aureus. The settings on record: for inhibitory effects against the biofilm formation of S. aureus: CV assay; for inhibition at 2 µg/mL / inhibition at 3.9 µg/mL / inhibition at 7.8 µg/mL / inhibition at 15.6 µg/mL / inhibition at 31.3 µg/mL / inhibition at 62.5 µg/mL / inhibition at 125 µg/mL / inhibition at 250 µg/mL: Staphylococcus aureus, DSM1104, read-out: inhibition of S. aureus biofilm formation compared to solvent control (= 0%). The protocol:
Selected azaphilones Rub C and W, Rut A and B were tested against the formation of biofilms in Staphylococcus aureus (DSM 1104). S. aureus DSM 1104 from a −20 °C stock was precultured in 25 mL CASO (casein-peptone soymeal-peptone) medium in a 250 mL flask at 37 °C with 100 rpm for 20 h. The OD600 of the culture solution was adjusted to 0.001 McFarland standard and incubated in 96-well microtiter plates (TPP tissue culture ref.no 92196, Switzerland) for 18 h at 37 °C with 150 μL of serially diluted test […]
compounds (250–2 μg/mL) in CASO with 4% glucose broth. The inhibition of biofilm formation was evaluated by staining with 150 μL of 0.1% crystal violet (CV; Thermo Fisher) following previously established protocols. In the next step, the supernatant of the 96-well plate was discarded and the wells were rinsed once with PBS buffer. The remaining biofilms were stained at room temperature for 15 min, rinsed three times with PBS buffer, and finally dissolved in 150 μL ethanol (95%). The absorbance of the resulting solution at 530 nm was quantified using a plate reader (Synergy 2, BioTek). Methanol (2.5%) and microporenic acid A (MAA) (250–2 μg/mL) were used as negative and positive controls. Standard deviations (SD) of two repeats with duplicates were 10% or less. […]
μg/mL) were used as negative control and positive control, respectively. The assay was conducted for […]
(§3) Table S2: Selected azaphilones were tested against the formation of biofilm of S. aureus, P. aeruginosa as well as C. auris and dispersal effect on preformed biofilm of S. aureus compared to solvent control (= 0%), respectively. SDs are shown as ±SD.
(§4) Compounds Strains Concentrations [µg/mL] […]

Assay [3] relates to Pseudomonas aeruginosa (PA 14) DSM 19882 biofilm. Nature of the assay: Crystal violet biofilm inhibition assay, P. aeruginosa. The settings on record: Pseudomonas aeruginosa, DSM19882, assay conducted once, read-out: inhibition of P. aeruginosa biofilm formation compared to solvent control (= 0%). The protocol:
Selected azaphilones Rub C and W, Rut A and B were tested against the formation of biofilms in Pseudomonas aeruginosa (PA 14) DSM 19882. Bacterial strain was precultured in 25 mL LB medium (Luria - Bertani Broth) with a 250 mL flask at 37 °C with shaking 100 rpm overnight. The turbidity of the baterial solution was measured and diluted to match the turbidity of a 0.1 McFarland standard in M63 medium, which is supplemented with magnesium sulfate, glucose and casamino acids as previously described. The compounds were added into 150 μL bacterial solution at the concentration (250–2 μg/mL) then the solution was added in U-bottom 96 well plate (Falcon ref.no 351177, Thermo Fisher Scientific). The plates were incubated at 37 °C at 150 rpm for 24 h and biofilms were established at the air liquid interface. The plates were rinsed once by using PBS buffer, the biofilms were stained by 150 μL 0.1% CV at room temperature for 15 min and then rinsed two times by using PBS buffer. The absorbance was quantified with the plate reader (Synergy 2, BioTek) at 550 nm using ethanol (95%). Methanol (2.5 %) and myxovalargin A (250 –2 μg/mL) were used as negative control and positive control, respectively. The assay was conducted for […]
as §3, §4

For assay [4], the system named is human endocervical adenocarcinoma KB-3-1 [ACC 158] cells. Nature of the assay: MTT cytotoxicity assay, KB-3-1. The settings on record: KB-3-1, MTT, tested 37 μg/mL–0.63 ng/mL, read-out: IC50. Here is the method: as §1
(§5) KB-3-1 (ACC 158) cervix carcinoma as well as L929 (ACC 2) mouse fibroblasts were cultured under standard cell culture conditions (37 °C, 5% CO2, 95% humidified atmosphere). The cells were maintained in high glucose DMEM containing 10% fetal bovine serum and 100 U/mL penicillin and streptomycin (Gibco, Thermo Fisher Scientific, Waltham, USA). Cell lines were serially passaged after trypsinization, using 0.05% trypsin / 0.02% EDTA solution. The cultures were routinely monitored for potential contamination, and only mycoplasma free cultures were used. The test compounds were investigated for their anti-proliferative effect on cell lines, using the 3-(4,5-dimethylthiazol-2-yl)-2,5-diphenyltetrazolium bromide (MTT) based cell viability assay. Cells were seeded in 96 well microtiter plates (Sarstedt, Germany) with a cell density of 0.05 * 10^6 cells per mL and 100 μL per well and were incubated for 24 h. […]
as §2
In general terms: Tetrazolium assays rely on reduction of a dye to a coloured formazan, in cell work by metabolically active cells.

Assay [5] concerns mouse fibroblasts L929 [ACC 2]. Briefly: MTT cytotoxicity assay, L929. The settings on record: MTT, tested 37 μg/mL–0.63 ng/mL, read-out: IC50. The protocol: as §1, §5, §2

Usually IC50 stands for the concentration at which inhibition is half-maximal. Usually inhibition stands for how much of the control response was suppressed. Regarding `CC(=O)OC/C=C/C1=CC2=C(CO1)C(=O)[C@@](C)(OC(=O)c1c(C)cc(O)cc1O)C(=O)/C2=C\C=C\C1=CC2=C(CO1)C(=O)[C@@](C)(O)[C@@H](OC(=O)c1c(C)cc(O)cc1O)C2` [Rut A, rutilin A], the IC50 in assay [1] is 1.1 µM to 2.2 µM and 0.9 µg/mL to 1.8 µg/mL. For the same molecule, in assay [2], the “inhibitory effects against the biofilm formation of S. aureus” value is “moderate inhibitory effects”, the inhibition at 2 µg/mL is less than 20%, the inhibition at 3.9 µg/mL was less than 20% and the inhibition at 7.8 µg/mL was less than 20%. In addition, in assay [2], the inhibition at 15.6 µg/mL was found to be 21 ± 2%, the inhibition at 31.3 µg/mL stood at 51 ± 10%, the inhibition at 62.5 µg/mL was 51 ± 10% and the inhibition at 125 µg/mL was 55 ± 9%. Moreover, the inhibition at 250 µg/mL in assay [2] came to 60 ± 6%. In assay [3], the inhibition at 2 µg/mL was less than 20%, the inhibition at 3.9 µg/mL is less than 20%, the inhibition at 7.8 µg/mL was less than 20% and the inhibition at 15.6 µg/mL is less than 20%. In addition, in assay [3], the inhibition at 31.3 µg/mL is less than 20%, the inhibition at 62.5 µg/mL was less than 20%, the inhibition at 125 µg/mL was less than 20% and the inhibition at 250 µg/mL was less than 20%. Further, the IC50 in assay [4] was 1100 nM. Further, the half-maximal inhibitory concentration (IC50) in assay [5] came to 1200 nM.
For the molecule `CC(=O)OC/C=C/C1=CC2=C(CO1)C(=O)[C@@](C)(OC(=O)c1c(C)cc(O)cc1O)C(=O)/C2=C\C=C\C1=CC2=C(CO1)C(=O)[C@@](C)(OC(=O)c1c(C)cc(O)cc1O)[C@@H](O)C2` [Rut B, rutilin B], the half-inhibitory concentration (IC50) in assay [1] was 1.1 µM to 2.2 µM and 0.9 µg/mL to 1.8 µg/mL. In assay [2], the “inhibitory effects against the biofilm formation of S. aureus” value is recorded as “moderate inhibitory effects”, the inhibition at 2 µg/mL was 86 ± 2%, the inhibition at 3.9 µg/mL is 88 ± 1% and the inhibition at 7.8 µg/mL turned out to be 88 ± 1%. For the same molecule, in assay [2], the inhibition at 15.6 µg/mL was 87 ± 2%, the inhibition at 31.3 µg/mL came out at 86 ± 2%, the inhibition at 62.5 µg/mL was 86 ± 2% and the inhibition at 125 µg/mL was found to be 85 ± 2%. Also, the inhibition at 250 µg/mL in assay [2] worked out at 84 ± 2%. Moreover, in assay [3], the inhibition at 2 µg/mL was less than 20%, the inhibition at 3.9 µg/mL is less than 20%, the inhibition at 7.8 µg/mL is less than 20% and the inhibition at 15.6 µg/mL is less than 20%. In assay [3], the inhibition at 31.3 µg/mL was less than 20%, the inhibition at 62.5 µg/mL is less than 20%, the inhibition at 125 µg/mL was less than 20% and the inhibition at 250 µg/mL is less than 20%. The half-inhibitory concentration (IC50) in assay [4] was 1500 nM. The IC50 in assay [5] is 2200 nM.

The values are drawn from PMC10381533, “Inhibitory Effects of the Fungal Pigment Rubiginosin C on Hyphal and Biofilm Formation in Candida albicans and Candida auris” (Journal of Fungi, 2023).
